Source: PMC11640089, “JRM-28, a Novel HDAC2 Inhibitor, Upregulates Plasticity-Associated Proteins in Hippocampal Neurons and Enhances Morphological Plasticity via Activation of CREB: Implications for Alzheimer’s Disease” (Cells, 2024)

Legend:
[1] = test system: SHSY5Y cells; assay: TUNEL assay; assay type: cell-based, human; settings: 24 h, in the presence of DTT
Experimental: To assess the effect of JRM-28 on apoptosis in SHS5Y cells, a total of 3 × 10^5 cells suspended in […] of complete neurobasal medium was distributed in each well of a poly-D-lysine-coated eight-well Chamber Slide. After 48 h, cells were treated with 2, 5, 10, 20, 30, and 50 μM of JRM-28 under serum-free conditions and then incubated for an additional 24 h. The TUNEL activity was measured by colorimetric microscopy as directed in the protocol described in DeadEnd™ Colorimetric TUNEL System (Promega, Madison, WI, USA). Hematoxylin staining was adopted to counterstain the slide.

[2] = test system: SHSY5Y human neuronal cells; assay: MAP2 immunofluorescence/immunoblot, dendritic morphogenesis in SHSY5Y neurons; assay type: cell-based
Experimental: Primary neuronal cell culture was performed based on a protocol approved by the Institutional Animal Care and Use Committee (IACUC) of the University of Wisconsin-Milwaukee, Milwaukee, WI-53211, and by the guidelines set by the National Institute of Health. Embryonic day 18 (E18) fetuses were harvested, and hippocampal tissue was dissected from brains and then processed for single cell culture in poly-D-lysine-coated plates, as discussed elsewhere. Neuronal cells were maintained with B-27^TM-plus-supplemented complete neurobasal media for 7–10 days until fully differentiated. After that, the treatment with JRM-28 was performed. SHSY5Y cells were grown, maintained, and passaged with complete DMEM media (a bottle of DMEM supplemented with 10% FBS, 2 mM L-glutamine, and 100 units/mL antibiotics); otherwise, for neuronal differentiation study, SHSY5Y was seeded with complete neurobasal medium. For making AD neurons, commercially purchased (Axol Bioscience Ltd.) A246E psen1 neural stem cells (NSCs) were maintained with KnockOut^TM DMEM/F12 media supplemented with StemPro^TM Neural Supplement, bFGF, EGF, 2 mM GlutMAX^TM supplement, and 10 mL/L antibiotic-antimycotic solution. These […] NSCs were grown in a […] cell culture flask coated with Geltrex^TM matrix until fully confluent and then detached by Accutase, centrifuged, washed, and plated in a poly-D-lysine-coated plate supplemented with complete neurobasal media for neuronal differentiation. After one week, when neurons were differentiated, JRM-28 treatment was conducted.
Immunofluorescence analysis was performed as described earlier. Briefly, cells cultured on coverslip contained in six-well plates (Lab-Tek II) were fixed with 4% paraformaldehyde for 20 min followed by two rinses in TBST. Samples were incubated in a 1:1 solution of TBST and blocking buffer containing rabbit anti-NR2A (1:250), anti-GluR1 (1:250), ant-HDAC2 (1:250), anti-CREB (1:250), and anti-MAP2 (1:250) for 2 h at 37 °C. After three washes in PBST (15 min each), slides were further incubated with FIT-C and TRIT-C-conjugated secondary antibodies. […]

[3] = test system: CREB; assay: CREB family expression (PCR array, RT-PCR, immunoblot) in SHSY5Y cells; assay type: cell-based, human
Experimental: Total RNA was isolated from SHSY5Y neurons using Gene JET RNA Purification Kit (Thermofisher Scientific; Cat #K0731) following the manufacturer’s protocol. RNA was converted to cDNA using the GoScript™ Reverse Transcriptase kit (Promega, Cat # A5001). Semi-quantitative RT-PCR was carried out as described earlier using an RT-PCR kit from Promega (Cat# M7502). Briefly, 1 µg of total RNA was reverse-transcribed using oligo(dT)12–18 as a primer and MMLV reverse transcriptase in a 20 µL reaction mixture. The resulting cDNA was diluted by nuclease-free H2O in a ratio of 1:2, and diluted cDNA was amplified using the following primers (Table 2).
Immunoblot analysis was carried out as described earlier. Briefly, SHSY5Y neuronal cell homogenates were electrophoresed by 4–12% Tris-Glycine gradient gel, proteins were transferred onto a 0.45 μm nitrocellulose membrane, and the protein band was visualized with Odyssey Sa infrared scanner after immunolabeling with primary antibodies followed by infrared fluorophore-tagged secondary antibody (Licor Biosciences, Lincoln, NE, USA).

[4] = test system: CREB; assay: CRE dual luciferase reporter assay; assay type: cell-based, human; settings: increasing doses (2, 5, and 10 µM)
Experimental: CRE luciferase assay was performed using a dual luciferase kit (Cat# 60611; BPS Bioscience). The CRE reporter is premixed with a constitutively expressing Renilla (sea pansy) luciferase vector that serves as an internal control for transfection efficiency. The reporter construct is transfected in SHSY5Y cells with Lipofectamine3000^TM transfection reagent mixed with serum-free Opti-MEM^TM Transfection media followed by supplementation with 20% FBS-containing media. After 24 h, cells were treated with JRM-28 for 5 h, and then dual luciferase activity was measured by cell lysis. The reaction was set in a 96-well plate, and the assay endpoint was recorded in a PerkinElmer Enspire multimodal plate reader.

[5] = test system: iPSC-derived AD neurons; assay: NMDA/AMPA-driven calcium entry assay in iPSC-derived AD neurons; assay type: cell-based, human
Experimental: Mouse primary hippocampal neurons and AD neurons were loaded with Fluo4-fluorescence conjugated calcium dye (Invitrogen Molecular Probes, Cat #F10471) and incubated at 37 °C for 60 min, as described before. Briefly, fluorescence excitation and emission spectra were recorded in a Perkin–Elmer Victor X2 Fluorimetric Spectrometer (Versiti Blood Center, Wauwatosa, WI, USA) in the presence of 50 μM NMDA and AMPA solutions. The recording was performed with 100 repeats at 0.1 ms intervals. The oscillogram was generated with the help of Parkin Elmer 2030 software that was connected to the Victor X2 calcium recorder unit. The real-time calcium noise graph was generated as a kinetic chart plotted on a linear scale.

CN(C(=O)CC(O)/C=C/CCSS(=O)(=O)CC/C=C/C(O)CC(=O)N(C)c1ccccc1)c1ccccc1 (stereo not drawn) [JRM-28, S-((E)-5-hydroxy-7-(methyl(phenyl)amino)-7-oxohept-3-en-1-yl) (E)-5-hydroxy-7-(methyl(phenyl)amino)-7-oxohept-3-ene-1-sulfonothioate]
TUNEL cytotoxicity ([1]; 20 µM): caused nuclear condensation
TUNEL cytotoxicity ([1]; 30 µM): induced significant cell death
TUNEL cytotoxicity ([1]; 50 µM): induced significant cell death
TUNEL cytotoxicity ([1]; lower doses up to 10 µM): did not induce any cell death
dendritic length / dendritic morphogenesis ([2]; 5 µM versus control, n = 200 per group): augmented the dendritic morphogenesis
dendritic pruning (MAP2-ir appendages) ([2]; 5 µM, 48 h (legend: 24 h)): significantly stimulated dendritic pruning
MAP2 expression (immunoblot) ([2]; 5 and 10 µM): upregulated the expressions of MAP2
CREB and CREB-dependent gene expression (RT2 Profiler PCR Array) ([3]; 5 µM): strongly upregulated the expressions of the creb gene and 37 other CREB-dependent genes
creb mRNA expression (semi-quantitative RT-PCR) ([3]; 5 µM): upregulated the mRNA expression of creb
crem mRNA expression (semi-quantitative RT-PCR) ([3]; 2 and 5 µM): failed to upregulate the expression of crem
CREB protein expression (immunoblot) ([3]; increasing concentrations): upregulated the expression of CREB protein
CREB-driven reporter activity [4]: upregulated the CREB-driven reporter activity
AMPA-driven calcium influx ([5]; 5 µM): strong AMPA-driven calcium influx
NMDA-driven calcium entry ([5]; 5 µM): significantly high
concentration of maximum NMDA-driven calcium entry ([5]; 2, 5, and 10 µM tested): 10 µM
NMDA- and AMPA-induced calcium entry after creb siRNA ([5]; creb siRNA-transfected AD neurons): strongly attenuated
